Earlier results on 6 compounds are cited in patent publication US20040082521A1, “Novel formulations of digitalis glycosides for treating cell-proliferative and other diseases” (Azaya Therapeutics Inc., priority 2002, published 2004).

Molecules are shown by their SMILES.

Data set [1] relates to FGF-2 release from PC3 cells. The following applies: 0.1 ng/mL.
The subject of data set [2] is FGF-2 release from DU145 cells. The following applies: 0.1 ng/mL.
Data set [3] has as its system various cancer cell lines.
Data set [4] deals with androgen-independent human prostate cancer cell lines. The following applies: for apoptosis: in vitro.
The subject of data set [5] is human malignant cell lines. To be noted: for growth and apoptosis: non-toxic concentrations.

In the case of `CO[C@H]1C[C@H](O[C@H]2CC[C@@]3(C)[C@H](CC[C@@H]4[C@@H]3CC[C@]3(C)[C@@H](C5=CC(=O)OC5)[C@@H](OC(C)=O)C[C@]43O)C2)O[C@@H](C)[C@@H]1O` [Oleandrin, 16b-acetoxy-3b-[(2,6-dideoxy-3-0-methyl-a2-L-arabino-hexopyranosyl)oxy]14-hydroxy-5β, 14β-card-20(22)-enolide], the “inhibition of FGF-2 release” value in data set [1] is given as 45.7%; in data set [2] it was 49.9%. In data set [3], the anti-cancer activities entry is on record as “significant anti-cancer activities”. In addition, in the data set on human cancer cells (comparison Oleandrin vs water extract), the cell-killing potency entry was “greater than that of the water extract”. The cell killing result in the data set on human cancer cells (human cancer cells) is listed as “able to induce cell killing”. Besides, the caspase activation entry in data set [4] (cleavage of poly (ADP-ribose) polymerase, hydrolysis of DEVD-pNA) is “promoted caspase activation”. Besides, the apoptosis entry in data set [4] is on record as “induce apoptosis”. Moreover, the “TNF-induced activation of NF-κB” value with NF-κB (TNF-induced) was “blocked”. In the data set on NF-κB (phorbol ester and lipopolysaccharide), the “NF-κB activation induced by phorbol ester and lipopolysaccharide” value was “blocked”. Moreover, in the data set with NF-κB (reporter gene), the “NF-κB-dependent reporter gene transcription activated by TNF” value is recorded as “suppressed”. Also, the “AP-1 activation induced by TNF and other agents” value in the data set with AP-1 was “blocked”. In the data set with c-Jun NH2terminal kinase, the “TNF-induced activation of c-Jun NH2terminal kinase” value is on record as “inhibited”. Further, the “elimination from the body” value (in vivo) is “one to two”. Besides, where the note is “when ingested”, the “distribution in the body” value was “widely distributed in the body”.

Take `C[C@@H]1O[C@@H](O[C@H]2C[C@@H](O)[C@]3(CO)[C@H]4[C@H](O)C[C@]5(C)[C@@H](C6=CC(=O)OC6)CC[C@]5(O)[C@@H]4CC[C@]3(O)C2)[C@H](O)[C@H](O)[C@H]1O` [Ouabain, reference compound]: the apoptosis entry in data set [4] was “induce apoptosis”.

Turning to `CO[C@@H]1C[C@H](O[C@H]2CC[C@@]3(C)[C@H](CC[C@@]45O[C@@]46CC[C@H](C4=CC(=O)OC4)[C@@]6(C)CC[C@H]35)C2)O[C@H](C)[C@@H]1O` [adynerin], the anti-cancer activities entry in [3] is recorded as “significant anti-cancer activities”.

For `C[C@H]1O[C@@H](O[C@H]2[C@@H](O)C[C@H](O[C@H]3[C@@H](O)C[C@H](O[C@H]4CC[C@@]5(C)[C@H](CC[C@@H]6[C@@H]5CC[C@]5(C)[C@@H](C7=CC(=O)OC7)CC[C@]65O)C4)O[C@@H]3C)O[C@@H]2C)C[C@H](O)[C@@H]1O` [digitoxin], the apoptosis-inducing effect result in [5] (in vitro, digitoxin vs digoxin) is “more potent for digitoxin than for digoxin”. Moreover, the growth and apoptosis entry in [5] is “inhibits growth and induce apoptosis”.

On to `C[C@H]1O[C@@H](O[C@H]2[C@@H](O)C[C@H](O[C@H]3[C@@H](O)C[C@H](O[C@H]4CC[C@@]5(C)[C@H](CC[C@@H]6[C@@H]5C[C@@H](O)[C@]5(C)[C@@H](C7=CC(=O)OC7)CC[C@]65O)C4)O[C@@H]3C)O[C@@H]2C)C[C@H](O)[C@@H]1O` [digoxin, reference compound], for which the growth and apoptosis result in [5] is “inhibits growth and induce apoptosis”. Moreover, the apoptosis entry in data set [4] was “induce apoptosis”.

For `C[C@H]1[C@H](C)CC[C@]2(C(=O)O)CC[C@]3(C)C(=CC[C@@H]4[C@@]5(C)CC[C@H](O)C(C)(C)[C@@H]5CC[C@]43C)[C@H]12` [ursolic acid], the anti-cancer activities entry in data set [3] is reported as “significant anti-cancer activities”.
